In patent publication US20100298141A1, “SUBSTITUTED PYRIDINE N-OXIDE HERBICIDES” (E. I. DU PONT DE NEMOURS AND COMPANY, priority 2007, published 2010):

Assays:
Test in all cases: Test F preemergence test
[1] = system: green foxtail; type: in vivo, Setaria viridis; settings: scale 0 to 100
Summary of the method: (§1)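 Compound in a non-phytotoxic solvent blend with surfactant is applied preemergence to planted seeds or postemergence to sugarcane plants. Plants and controls stay in the greenhouse 14 to 21 days before visual comparison.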

[2] = system: bermudagrass; type: in vivo, Cynodon dactylon; settings: scale 0 to 100
Summary of the method: as §1

[3] = system: mustard; type: in vivo, Brassica nigra; settings: scale 0 to 100
Summary of the method: as §1

[4] = system: prickly sida; type: in vivo, Sida spinosa; settings: scale 0 to 100
Summary of the method: as §1

[5] = system: large crabgrass; type: in vivo, Digitaria sanguinalis; settings: scale 0 to 100
Summary of the method: as §1

[6] = system: annual bluegrass; type: in vivo, Poa annua; settings: scale 0 to 100
Summary of the method: as §1

[7] = system: pitted morningglory; type: in vivo, Ipomoea lacunosa; settings: scale 0 to 100
Summary of the method: as §1

[8] = system: Canada horseweed; type: in vivo, Conyza canadensis; settings: scale 0 to 100
Summary of the method: as §1

[9] = system: southern sandbur; type: in vivo, Cenchrus echinatus; settings: scale 0 to 100; for Sandbur plant response rating: preemergence; for Plant response rating, Sandbur: Preemergence
Summary of the method: as §1

[10] = system: quackgrass; type: in vivo, Elytrigia repens; settings: scale 0 to 100
Summary of the method: as §1

[11] = system: guineagrass; type: in vivo, Panicum maximum; settings: scale 0 to 100
Summary of the method: as §1

[12] = system: field bindweed; type: in vivo, Convolvulus arvensis; settings: scale 0 to 100
Summary of the method: as §1

[13] = system: common chickweed; type: in vivo, Stellaria media; settings: scale 0 to 100
Summary of the method: as §1

[14] = system: common mallow; type: in vivo, Malva sylvestris; settings: scale 0 to 100
Summary of the method: as §1

[15] = system: common ragweed; type: in vivo, Ambrosia elation; settings: scale 0 to 100; for Ragweed plant response rating: preemergence; for Plant response rating, Ragweed: Preemergence
Summary of the method: as §1

[16] = system: common purslane; type: in vivo, Portulaca oleracea; settings: scale 0 to 100
Summary of the method: as §1

[17] = system: naked crabgrass; type: in vivo, Digitaria nuda; settings: scale 0 to 100
Summary of the method: as §1

[18] = system: Surinam grass; type: in vivo, Brachiaria decumbens; settings: scale 0 to 100; for Surinam Grass plant response rating: preemergence; for Plant response rating, Surinam Grass: Preemergence
Summary of the method: as §1

[19] = system: Italian ryegrass; type: in vivo, Lolium multiflorum; settings: scale 0 to 100; for Ryegrass, Italian plant response rating: preemergence; for Plant response rating, Ryegrass, Italian: Preemergence
Summary of the method: as §1

[20] = system: barnyardgrass; type: in vivo, Echinochloa crus-galli; settings: scale 0 to 100
Summary of the method: as §1

Compound: Cn1nc(C(F)(F)F)c(C[S+]([O-])c2ccc(F)c[n+]2[O-])c1OC(F)F (stereo not drawn) [Compound 58]
- Foxtail, Green plant response rating ([1]; 62 g ai/ha, Preemergence): 95
- Foxtail, Green plant response rating ([1]; 125 g ai/ha, preemergence): 100
- Foxtail, Green plant response rating ([1]; 250 g ai/ha, preemergence): 100
- Plant response rating, Foxtail, Green ([1]; Preemergence, 31 g ai/ha): 60
- Bermudagrass plant response rating ([2]; 62 g ai/ha, Preemergence): 90
- Bermudagrass plant response rating ([2]; 125 g ai/ha, preemergence): 100
- Bermudagrass plant response rating ([2]; 250 g ai/ha, preemergence): 100
- Plant response rating, Bermudagrass ([2]; Preemergence, 31 g ai/ha): 70
- Black Mustard plant response rating ([3]; 62 g ai/ha, Preemergence): 60
- Black Mustard plant response rating ([3]; 125 g ai/ha, preemergence): 100
- Black Mustard plant response rating ([3]; 250 g ai/ha, preemergence): 100
- Plant response rating, Black Mustard ([3]; Preemergence, 31 g ai/ha): 50
- Prickly Sida plant response rating ([4]; 62 g ai/ha, Preemergence): 65
- Prickly Sida plant response rating ([4]; 125 g ai/ha, preemergence): 95
- Prickly Sida plant response rating ([4]; 250 g ai/ha, preemergence): 98
- Plant response rating, Prickly Sida ([4]; Preemergence, 31 g ai/ha): 0
- Crabgrass, Large plant response rating ([5]; 62 g ai/ha, Preemergence): 98
- Crabgrass, Large plant response rating ([5]; 125 g ai/ha, preemergence): 100
- Crabgrass, Large plant response rating ([5]; 250 g ai/ha, preemergence): 100
- Plant response rating, Crabgrass, Large ([5]; Preemergence, 31 g ai/ha): 75
- Bluegrass plant response rating ([6]; 62 g ai/ha, Preemergence): 70
- Bluegrass plant response rating ([6]; 125 g ai/ha, preemergence): 95
- Bluegrass plant response rating ([6]; 250 g ai/ha, preemergence): 100
- Plant response rating, Bluegrass ([6]; Preemergence, 31 g ai/ha): 0
- Morningglory plant response rating ([7]; 62 g ai/ha, Preemergence): 70
- Morningglory plant response rating ([7]; 125 g ai/ha, preemergence): 100
- Morningglory plant response rating ([7]; 250 g ai/ha, preemergence): 100
- Plant response rating, Morningglory ([7]; Preemergence, 31 g ai/ha): 50
- Horseweed plant response rating ([8]; 62 g ai/ha, Preemergence): 98
- Horseweed plant response rating ([8]; 125 g ai/ha, preemergence): 98
- Horseweed plant response rating ([8]; 250 g ai/ha, preemergence): 100
- Plant response rating, Horseweed ([8]; Preemergence, 31 g ai/ha): 98
- Sandbur plant response rating ([9]; 125 g ai/ha): 100
- Sandbur plant response rating ([9]; 250 g ai/ha): 100
- Plant response rating, Sandbur ([9]; 62 g ai/ha): 100
- Plant response rating, Sandbur ([9]; 31 g ai/ha): 80
- Quackgrass plant response rating ([10]; 62 g ai/ha, Preemergence): 70
- Quackgrass plant response rating ([10]; 125 g ai/ha, preemergence): 95
- Quackgrass plant response rating ([10]; 250 g ai/ha, preemergence): 100
- Plant response rating, Quackgrass ([10]; Preemergence, 31 g ai/ha): 35
- Guineagrass plant response rating ([11]; 62 g ai/ha, Preemergence): 100
- Guineagrass plant response rating ([11]; 125 g ai/ha, preemergence): 100
- Guineagrass plant response rating ([11]; 250 g ai/ha, preemergence): 100
- Plant response rating, Guineagrass ([11]; Preemergence, 31 g ai/ha): 90
- Field Bindweed plant response rating ([12]; 62 g ai/ha, Preemergence): 0
- Field Bindweed plant response rating ([12]; 125 g ai/ha, preemergence): 20
- Field Bindweed plant response rating ([12]; 250 g ai/ha, preemergence): 65
- Plant response rating, Field Bindweed ([12]; Preemergence, 31 g ai/ha): 0
- Chickweed plant response rating ([13]; 62 g ai/ha, Preemergence): 95
- Chickweed plant response rating ([13]; 125 g ai/ha, preemergence): 100
- Chickweed plant response rating ([13]; 250 g ai/ha, preemergence): 100
- Mallow plant response rating ([14]; 62 g ai/ha, Preemergence): 25
- Mallow plant response rating ([14]; 125 g ai/ha, preemergence): 90
- Mallow plant response rating ([14]; 250 g ai/ha, preemergence): 100
- Ragweed plant response rating ([15]; 125 g ai/ha): 60
- Ragweed plant response rating ([15]; 250 g ai/ha): 80
- Plant response rating, Ragweed ([15]; 62 g ai/ha): 60
- Plant response rating, Ragweed ([15]; 31 g ai/ha): 50
- Purslane plant response rating ([16]; 62 g ai/ha, Preemergence): 25
- Purslane plant response rating ([16]; 125 g ai/ha, preemergence): 80
- Purslane plant response rating ([16]; 250 g ai/ha, preemergence): 100
- Plant response rating, Purslane ([16]; Preemergence, 31 g ai/ha): 0
- Crabgrass, Naked plant response rating ([17]; 62 g ai/ha, Preemergence): 100
- Crabgrass, Naked plant response rating ([17]; 125 g ai/ha, preemergence): 100
- Crabgrass, Naked plant response rating ([17]; 250 g ai/ha, preemergence): 100
- Plant response rating, Crabgrass, Naked ([17]; Preemergence, 31 g ai/ha): 75
- Surinam Grass plant response rating ([18]; 125 g ai/ha): 100
- Surinam Grass plant response rating ([18]; 250 g ai/ha): 100
- Plant response rating, Surinam Grass ([18]; 62 g ai/ha): 98
- Plant response rating, Surinam Grass ([18]; 31 g ai/ha): 80
- Ryegrass, Italian plant response rating ([19]; 125 g ai/ha): 100
- Ryegrass, Italian plant response rating ([19]; 250 g ai/ha): 100
- Plant response rating, Ryegrass, Italian ([19]; 62 g ai/ha): 98
- Plant response rating, Ryegrass, Italian ([19]; 31 g ai/ha): 50
- Barnyardgrass plant response rating ([20]; 62 g ai/ha, Preemergence): 100
- Barnyardgrass plant response rating ([20]; 125 g ai/ha, preemergence): 100
- Barnyardgrass plant response rating ([20]; 250 g ai/ha, preemergence): 100
- Plant response rating, Barnyardgrass ([20]; Preemergence, 31 g ai/ha): 90
